{"source": "ChEMBL document CHEMBL5625165", "about": "“Nine-valent oleanolic acid conjugates as potent inhibitors blocking the entry of influenza A virus” (Eur J Med Chem, 2023)", "key": {"[1]": {"experiment": "Cytotoxicity against dog MDCK cells assessed as cell viability at 30 uM incubated for 48 hrs by celltiter-glo assay", "type": "toxicity, cell-based, Canis lupus familiaris", "conditions": "read-out: Activity"}, "Influenza A virus [2]": {"system": "Influenza A virus", "experiment": "Antiviral activity against influenza A virus A/WSN/33(H1N1) infected in MDCK cells assessed as inhibition of viral growth at 30 uM incubated for 48 hrs by microscopic analysis", "type": "functional", "design": "scale not given: the % may be the effect or the level left"}, "Influenza A virus [3]": {"system": "Influenza A virus", "experiment": "Antiviral activity against influenza A virus A/WSN/33(H1N1) infected in MDCK cells assessed as inhibition of viral-induced cytopathic effect incubated for 48 hrs by microscopic analysis", "type": "functional, organism-based"}, "[4]": {"experiment": "Cytotoxicity against dog MDCK cells assessed as reduction in cell viability incubated for 48 hrs by celltiter-glo assay", "type": "toxicity, cell-based, Canis lupus familiaris"}, "[5]": {"experiment": "Selectivity index, ratio of CC50 for cytotoxicity against dog MDCK cells assessed as reduction in cell viability to IC50 for antiviral activity against influenza A virus A/WSN/33(H1N1) infected in MDCK cells assessed as inhibition of viral-induced cytopathic effect", "type": "toxicity, cell-based", "conditions": "read-out: Ratio CC50/IC50"}, "Influenza A virus [6]": {"system": "Influenza A virus", "experiment": "Antiviral activity against influenza A virus B/Sichuan/531/2018 (Victoria) infected in MDCK cells assessed as inhibition of viral growth", "type": "functional, organism-based"}, "[7]": {"experiment": "Selectivity index, ratio of CC50 for cytotoxicity against dog MDCK cells assessed as reduction in cell viability to IC50 for antiviral activity against influenza A virus B/Sichuan/531/2018 (Victoria) infected in MDCK cells assessed as inhibition of viral growth", "type": "toxicity, cell-based", "conditions": "read-out: Ratio CC50/IC50"}, "Influenza A virus [8]": {"system": "Influenza A virus", "experiment": "Antiviral activity against influenza A virus B/Darwin/58/2019 (Yamagata) infected in MDCK cells assessed as inhibition of viral growth", "type": "functional, organism-based"}, "[9]": {"experiment": "Selectivity index, ratio of CC50 for cytotoxicity against dog MDCK cells assessed as reduction in cell viability to IC50 for antiviral activity against influenza A virus B/Darwin/58/2019 (Yamagata) infected in MDCK cells assessed as inhibition of viral growth", "type": "toxicity, cell-based", "conditions": "read-out: Ratio CC50/IC50"}, "Erythrocyte": {"system": "Erythrocyte", "experiment": "Hemolytic activity in rabbit RBC assessed as hemolysis at 300 uM incubated for 2 hr by spectrophotometry analysis", "type": "toxicity, cell-based, Oryctolagus cuniculus"}}}
{"smiles": "COC(=O)c1cc(OCc2cn(CCOCCOCCOCCNC(=O)c3cc(OCc4cn(CCOCCOCCOCCNC(=O)[C@]56CCC(C)(C)C[C@H]5C5=CC[C@@H]7[C@@]8(C)CC[C@H](O)C(C)(C)[C@@H]8CC[C@@]7(C)[C@]5(C)CC6)nn4)c(OCc4cn(CCOCCOCCOCCNC(=O)[C@]56CCC(C)(C)C[C@H]5C5=CC[C@@H]7[C@@]8(C)CC[C@H](O)C(C)(C)[C@@H]8CC[C@@]7(C)[C@]5(C)CC6)nn4)c(OCc4cn(CCOCCOCCOCCNC(=O)[C@]56CCC(C)(C)C[C@H]5C5=CC[C@@H]7[C@@]8(C)CC[C@H](O)C(C)(C)[C@@H]8CC[C@@]7(C)[C@]5(C)CC6)nn4)c3)nn2)c(OCc2cn(CCOCCOCCOCCNC(=O)c3cc(OCc4cn(CCOCCOCCOCCNC(=O)[C@]56CCC(C)(C)C[C@H]5C5=CC[C@@H]7[C@@]8(C)CC[C@H](O)C(C)(C)[C@@H]8CC[C@@]7(C)[C@]5(C)CC6)nn4)c(OCc4cn(CCOCCOCCOCCNC(=O)[C@]56CCC(C)(C)C[C@H]5C5=CC[C@@H]7[C@@]8(C)CC[C@H](O)C(C)(C)[C@@H]8CC[C@@]7(C)[C@]5(C)CC6)nn4)c(OCc4cn(CCOCCOCCOCCNC(=O)[C@]56CCC(C)(C)C[C@H]5C5=CC[C@@H]7[C@@]8(C)CC[C@H](O)C(C)(C)[C@@H]8CC[C@@]7(C)[C@]5(C)CC6)nn4)c3)nn2)c(OCc2cn(CCOCCOCCOCCNC(=O)c3cc(OCc4cn(CCOCCOCCOCCNC(=O)[C@]56CCC(C)(C)C[C@H]5C5=CC[C@@H]7[C@@]8(C)CC[C@H](O)C(C)(C)[C@@H]8CC[C@@]7(C)[C@]5(C)CC6)nn4)c(OCc4cn(CCOCCOCCOCCNC(=O)[C@]56CCC(C)(C)C[C@H]5C5=CC[C@@H]7[C@@]8(C)CC[C@H](O)C(C)(C)[C@@H]8CC[C@@]7(C)[C@]5(C)CC6)nn4)c(OCc4cn(CCOCCOCCOCCNC(=O)[C@]56CCC(C)(C)C[C@H]5C5=CC[C@@H]7[C@@]8(C)CC[C@H](O)C(C)(C)[C@@H]8CC[C@@]7(C)[C@]5(C)CC6)nn4)c3)nn2)c1", "values": [{"measurement": "viability at 48 h, 30 µM", "setting": "[1]", "value": 100, "unit": "%"}, {"measurement": "Activity", "setting": "Influenza A virus [2]", "value": 65.08, "unit": "%"}, {"measurement": "IC50", "setting": "Influenza A virus [3]", "value": 47.1, "unit": "µM"}, {"measurement": "CC50 at 48 h", "setting": "[4]", "value": "> 30", "unit": "µM"}, {"measurement": "selectivity ratio", "setting": "[5]", "value": "> 0.64"}]}
{"smiles": "CC1(C)CC[C@]2(C(=O)NCCOCCOCCn3cc(COc4cc(C(=O)NCCNC(=O)OCCn5cc(COc6cc(OCc7cn(CCOC(=O)NCCNC(=O)c8cc(OCc9cn(CCOCCOCCNC(=O)[C@]%10%11CCC(C)(C)C[C@H]%10C%10=CC[C@@H]%12[C@@]%13(C)CC[C@H](O)C(C)(C)[C@@H]%13CC[C@@]%12(C)[C@]%10(C)CC%11)nn9)c(OCc9cn(CCOCCOCCNC(=O)[C@]%10%11CCC(C)(C)C[C@H]%10C%10=CC[C@@H]%12[C@@]%13(C)CC[C@H](O)C(C)(C)[C@@H]%13CC[C@@]%12(C)[C@]%10(C)CC%11)nn9)c(OCc9cn(CCOCCOCCNC(=O)[C@]%10%11CCC(C)(C)C[C@H]%10C%10=CC[C@@H]%12[C@@]%13(C)CC[C@H](O)C(C)(C)[C@@H]%13CC[C@@]%12(C)[C@]%10(C)CC%11)nn9)c8)nn7)cc(OCc7cn(CCOC(=O)NCCNC(=O)c8cc(OCc9cn(CCOCCOCCNC(=O)[C@]%10%11CCC(C)(C)C[C@H]%10C%10=CC[C@@H]%12[C@@]%13(C)CC[C@H](O)C(C)(C)[C@@H]%13CC[C@@]%12(C)[C@]%10(C)CC%11)nn9)c(OCc9cn(CCOCCOCCNC(=O)[C@]%10%11CCC(C)(C)C[C@H]%10C%10=CC[C@@H]%12[C@@]%13(C)CC[C@H](O)C(C)(C)[C@@H]%13CC[C@@]%12(C)[C@]%10(C)CC%11)nn9)c(OCc9cn(CCOCCOCCNC(=O)[C@]%10%11CCC(C)(C)C[C@H]%10C%10=CC[C@@H]%12[C@@]%13(C)CC[C@H](O)C(C)(C)[C@@H]%13CC[C@@]%12(C)[C@]%10(C)CC%11)nn9)c8)nn7)c6)nn5)cc(OCc5cn(CCOCCOCCNC(=O)[C@]67CCC(C)(C)C[C@H]6C6=CC[C@@H]8[C@@]9(C)CC[C@H](O)C(C)(C)[C@@H]9CC[C@@]8(C)[C@]6(C)CC7)nn5)c4OCc4cn(CCOCCOCCNC(=O)[C@]56CCC(C)(C)C[C@H]5C5=CC[C@@H]7[C@@]8(C)CC[C@H](O)C(C)(C)[C@@H]8CC[C@@]7(C)[C@]5(C)CC6)nn4)nn3)CC[C@]3(C)C(=CC[C@@H]4[C@@]5(C)CC[C@H](O)C(C)(C)[C@@H]5CC[C@]43C)[C@@H]2C1", "values": [{"measurement": "viability at 48 h, 30 µM", "setting": "[1]", "value": 97.2, "unit": "%"}, {"measurement": "Activity", "setting": "Influenza A virus [2]", "value": 97.28, "unit": "%"}, {"measurement": "IC50", "setting": "Influenza A virus [3]", "value": 18.1, "unit": "µM"}, {"measurement": "CC50 at 48 h", "setting": "[4]", "value": "> 30", "unit": "µM"}, {"measurement": "selectivity ratio", "setting": "[5]", "value": "> 1.66"}]}
{"smiles": "O=C1c2c(O)c(=O)ccn2N([C@@H]2c3ccccc3SCc3c2ccc(F)c3F)[C@@H]2COCCN12", "note": "[BALOXAVIR]", "values": [{"measurement": "IC50", "setting": "Influenza A virus [3]", "value": 0.009, "unit": "µM"}, {"measurement": "CC50 at 48 h", "setting": "[4]", "value": 9.56, "unit": "µM"}, {"measurement": "selectivity ratio", "setting": "[5]", "value": 1650}, {"measurement": "IC50", "setting": "Influenza A virus [6]", "value": 0.07, "unit": "µM"}, {"measurement": "selectivity ratio", "setting": "[7]", "value": 137}, {"measurement": "IC50", "setting": "Influenza A virus [8]", "value": 3.78, "unit": "µM"}, {"measurement": "selectivity ratio", "setting": "[9]", "value": 2.53}]}
{"smiles": "CC1(C)CC[C@]2(C(=O)O)CC[C@]3(C)C(=CC[C@@H]4[C@@]5(C)CC[C@H](O)C(C)(C)[C@@H]5CC[C@]43C)[C@@H]2C1", "note": "[OLEANOLIC_ACID]", "values": [{"measurement": "viability at 48 h, 30 µM", "setting": "[1]", "value": 99, "unit": "%"}, {"measurement": "Activity", "setting": "Influenza A virus [2]", "value": 25.06, "unit": "%"}, {"measurement": "CC50 at 48 h", "setting": "[4]", "value": "> 100", "unit": "µM"}, {"measurement": "selectivity ratio", "setting": "[5]", "value": "> 1.38"}]}
{"smiles": "CCOC(=O)C1=C[C@@H](OC(CC)CC)[C@H](NC(C)=O)[C@@H](N)C1.O=P(O)(O)O", "note": "[OSELTAMIVIR PHOSPHATE]", "values": [{"measurement": "viability at 48 h, 30 µM", "setting": "[1]", "value": 100, "unit": "%"}, {"measurement": "Activity", "setting": "Influenza A virus [2]", "value": 89.22, "unit": "%"}, {"measurement": "CC50 at 48 h", "setting": "[4]", "value": "> 100", "unit": "µM"}, {"measurement": "selectivity ratio", "setting": "[5]", "value": "> 55"}, {"measurement": "IC50", "setting": "Influenza A virus [6]", "value": "> 100", "unit": "µM"}, {"measurement": "IC50", "setting": "Influenza A virus [8]", "value": "> 100", "unit": "µM"}]}
{"smiles": "CC1(C)CC[C@]2(C(=O)NCCOCCOCCOCCOCCn3cc(COc4cc(C(=O)NCCNC(=O)OCCn5cc(COc6cc(OCc7cn(CCOC(=O)NCCNC(=O)c8cc(OCc9cn(CCOCCOCCOCCOCCNC(=O)[C@]%10%11CCC(C)(C)C[C@H]%10C%10=CC[C@@H]%12[C@@]%13(C)CC[C@H](O)C(C)(C)[C@@H]%13CC[C@@]%12(C)[C@]%10(C)CC%11)nn9)c(OCc9cn(CCOCCOCCOCCOCCNC(=O)[C@]%10%11CCC(C)(C)C[C@H]%10C%10=CC[C@@H]%12[C@@]%13(C)CC[C@H](O)C(C)(C)[C@@H]%13CC[C@@]%12(C)[C@]%10(C)CC%11)nn9)c(OCc9cn(CCOCCOCCOCCOCCNC(=O)[C@]%10%11CCC(C)(C)C[C@H]%10C%10=CC[C@@H]%12[C@@]%13(C)CC[C@H](O)C(C)(C)[C@@H]%13CC[C@@]%12(C)[C@]%10(C)CC%11)nn9)c8)nn7)cc(OCc7cn(CCOC(=O)NCCNC(=O)c8cc(OCc9cn(CCOCCOCCOCCOCCNC(=O)[C@]%10%11CCC(C)(C)C[C@H]%10C%10=CC[C@@H]%12[C@@]%13(C)CC[C@H](O)C(C)(C)[C@@H]%13CC[C@@]%12(C)[C@]%10(C)CC%11)nn9)c(OCc9cn(CCOCCOCCOCCOCCNC(=O)[C@]%10%11CCC(C)(C)C[C@H]%10C%10=CC[C@@H]%12[C@@]%13(C)CC[C@H](O)C(C)(C)[C@@H]%13CC[C@@]%12(C)[C@]%10(C)CC%11)nn9)c(OCc9cn(CCOCCOCCOCCOCCNC(=O)[C@]%10%11CCC(C)(C)C[C@H]%10C%10=CC[C@@H]%12[C@@]%13(C)CC[C@H](O)C(C)(C)[C@@H]%13CC[C@@]%12(C)[C@]%10(C)CC%11)nn9)c8)nn7)c6)nn5)cc(OCc5cn(CCOCCOCCOCCOCCNC(=O)[C@]67CCC(C)(C)C[C@H]6C6=CC[C@@H]8[C@@]9(C)CC[C@H](O)C(C)(C)[C@@H]9CC[C@@]8(C)[C@]6(C)CC7)nn5)c4OCc4cn(CCOCCOCCOCCOCCNC(=O)[C@]56CCC(C)(C)C[C@H]5C5=CC[C@@H]7[C@@]8(C)CC[C@H](O)C(C)(C)[C@@H]8CC[C@@]7(C)[C@]5(C)CC6)nn4)nn3)CC[C@]3(C)C(=CC[C@@H]4[C@@]5(C)CC[C@H](O)C(C)(C)[C@@H]5CC[C@]43C)[C@@H]2C1", "values": [{"measurement": "viability at 48 h, 30 µM", "setting": "[1]", "value": 99.3, "unit": "%"}, {"measurement": "Activity", "setting": "Influenza A virus [2]", "value": 53.88, "unit": "%"}, {"measurement": "CC50 at 48 h", "setting": "[4]", "value": "> 30", "unit": "µM"}, {"measurement": "Activity", "setting": "Erythrocyte", "value": "Non-Toxic"}]}
